Test results published in patent US6372236B1, “Cream composition for skin care” (Doosan Corporation, priority 2000, dated 2002).

System: acne
Assay: Test on patients suffering from acne
Format: in vivo, human

With `CCCCCCCCCCCCCC[C@@H](O)[C@@H](O)[C@@H](N)CO` [phytosphingosine] the therapeutic efficacy was “good therapeutic efficacy”.
